Laboratory results from PubChem BioAssay (NCI).
“And” between values parts separate entries of the source, which are not always exact repeats. Identical values can stand only once.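 In this assay, cells in 96-well plates receive the compound at five concentrations for 48 hours. Endpoints are linearly interpolated between the surrounding concentrations. GI50 is the concentration that inhibits growth by half. TGI denotes the concentration required for complete inhibition of growth.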

Columns and labels:
Test in all cases: NCI-60 cell line screen, 48 h
[1] = system: A549 NSCLC
[2] = system: NCI-H226 lung
[3] = system: MDA-MB-435
[4] = system: COLO 205 colon
[5] = system: PC-3 prostate
[6] = system: ACHN renal
[7] = system: LOX IMVI melanoma
[8] = system: SK-OV-3 ovarian
[9] = system: MALME-3M melanoma
[10] = system: RPMI-8226 leukemia

Row | Structure (SMILES) | GI50 [1] [µM] | TGI [1] | GI50 [2] [µM] | TGI [2] [µM] | GI50 [3] | TGI [3] [µM] | GI50 [4] | TGI [4] | GI50 [5] | TGI [5] [µM] | GI50 [6] [µM] | TGI [6] [µM] | GI50 [7] | TGI [7] | GI50 [8] | TGI [8] | GI50 [9] [µM] | TGI [9] [µM] | GI50 [10] | TGI [10] [µM]
1 | COc1ccc(C[n+]2c3ccccc3n3c4ccc(N)cc4ccc32)c(OC)c1OC | 19.3 | > 100 µM | 12.8 | 60.8 | 2.92 µM | 13.5 | 1.9 µM | 5.65 µM | 1.82 µM | 13.7 | 36.2 | > 100 | 10.7 µM | 36.3 µM | 10.4 µM | 49.2 µM | 2.08 | 7.48 | 0.512 µM | 7.64
2 | NC1=NC(c2ccc(Cl)cc2)N(c2ccc(S(=O)(=O)Nc3ncccn3)cc2)C(N)=N1 (stereo not given) | – | > 100 µM | – | > 100 | – | > 100 | – | > 100 µM | – | > 100 | – | > 100 | – | > 100 µM | – | > 100 µM | – | > 100 | – | > 100
3 | Cc1oc2nc[nH]c(=O)c2c1C(=O)/C=C/c1ccc(Cl)cc1 | 2.66 | 11.2 µM | 1.96 | 7.36 | 2.4 µM | 8.64 | 1.9 µM | 4.22 µM | 2.49 µM | 8.76 | 1.99 | 6.04 | 1.6 µM | 3.32 µM | 3.09 µM | 13.8 µM | 2.13 | 8.29 | 1.66 µM | 5.16
4 | O=c1oc2cc(N=Cc3ccccc3Cl)ccc2c2ccccc12 | – | > 100 µM | – | > 100 | – | > 100 | – | > 100 µM | – | > 100 | – | > 100 | – | > 100 µM | – | – | – | > 100 | – | > 100
5 | CCN(CC)C(=O)CC1=C(C)/C(=C/c2[nH]c(-c3ccc[nH]3)cc2OC)N=C1C | 0.639 | > 100 µM | 0.531 | 6.11 | 0.412 µM | 14.6 | 0.296 µM | 10.1 µM | 0.35 µM | 33 | 0.374 | 1.97 | 0.199 µM | 0.513 µM | 0.658 µM | 8.3 µM | 0.982 | 9.05 | 0.304 µM | 2.28
6 | NC(=O)c1cc(-c2ccncc2)cc(-c2ccccc2)c1N | > 23.2 | > 25 µM | 12.7 | > 25 | > 25 µM | > 25 | 22.1 µM | > 25 µM | > 22.3 µM | > 25 | 7.4 | > 25 | > 22.7 µM | > 25 µM | 11.5 µM | > 25 µM | > 25 | > 25 | 11.6 µM | > 25
7 | O=C(/C=C/C12c3ccccc3C(c3ccccc31)C1C(=O)N(c3ccccc3)C(=O)C12)c1ccc(Cl)cc1 (stereo not given) | 2.37 | > 100 µM | 2.04 | 5.82 | 1.93 µM | 5.39 | 1.79 µM | 3.58 µM | 1.42 µM | 8.27 | 1.39 | 2.81 | 1.65 µM | 3.25 µM | 5.28 µM | > 100 µM | 1.6 | 3.37 | 1.16 µM | 4.68
8 | N=Nc1c(OC(=O)Nc2ccccc2)[nH]c2ccccc12 | – | 44.4 µM | – | 37.9 | – | 45.1 | – | 42.9 µM | – | 34.4 | – | 36.6 | – | 33.7 µM | – | 36.8 µM | – | 29.2 | – | 32.1
9 | COC1C(O)C(C)OC(OC2C(Oc3cccc4c(O)c5c(=O)oc6ccc(C)c7c(=O)oc(c34)c5c67)OC(C)C3O[C@H](c4ccccc4)OC32)C1O (stereo not given in full) | – | 2.53 µM | 0.186 | 0.836 | 0.309 µM and 0.436 µM | 7.22 | 0.258 µM and 0.204 µM | 5.59 µM | 0.243 µM | 8.71 | 0.0276 | – | 0.199 µM and 0.048 µM | 1.72 µM | – | 7.94 µM | – | 3.72 | 0.115 µM | 11.1
10 | O=C(CCN1CCOCC1)Nc1ccc(F)cc1F | – | > 100 µM | – | > 100 | – | > 100 | – | > 100 µM | – | > 100 | – | > 100 | – | > 100 µM | – | > 100 µM | – | > 100 | – | > 100
11 | C=C1C(=O)O[C@H]2[C@H]1CC/C(Cn1cc(CNCCc3c[nH]c4ccc(Cl)cc34)nn1)=C\CC[C@@]1(C)O[C@@H]21 | 34.9 | > 100 µM | 31.3 | > 100 | 6.09 µM | 21 | 1.96 µM | 3.75 µM | 8.96 µM | 27 | 10.2 | 22.2 | 3.56 µM | 16 µM | 35 µM | > 100 µM | 2.4 | 6.61 | 2.36 µM | 5.55
12 | Cn1cc(C2=C(c3c4n(c5ccccc35)CCCC4)C(=O)NC2=O)c2ccccc21 | 12.5 | > 25 µM | > 22 | > 25 | 1.08 µM | > 15.2 | 10.7 µM | > 25 µM | 10.4 µM | > 25 | 20.4 | > 25 | 16.6 µM | > 25 µM | > 15.3 µM | > 25 µM | > 17.8 | > 25 | > 15.6 µM | > 25
13 | CN(CCC#N)c1ccc(/C=C(\C#N)c2cccc(C(F)(F)F)c2)cc1 | – | – | 6.02 | > 100 | 2.07 µM | 6 | 3.81 µM | > 100 µM | 4.07 µM | > 100 | 4.13 | > 100 | 3.75 µM | > 100 µM | 36.7 µM | > 100 µM | 3.59 | > 100 | 3.63 µM | > 100
14 | Cc1cc(=O)oc2c(CN3CCCCC3)c(O)ccc12 | – | > 100 µM | – | > 100 | – | > 100 | – | > 100 µM | – | > 100 | – | > 100 | – | > 100 µM | – | – | – | > 100 | – | > 100
15 | NC(C/[N+]([O-])=N/O)C(=O)O (stereo not given) | 0.24 | > 100 µM and 67.9 µM | – | > 468 | 11.7 µM and 17.9 µM and 10.6 µM | > 500 | 21.6 µM and 69.7 µM and 17.4 µM | > 62.7 µM and > 100 µM and 256 µM | 6.71 µM and 3.64 µM and 4.92 µM | > 500 | 2.98 | > 500 | – | > 100 µM and 153 µM | 58 µM and > 100 µM and 55.7 µM | > 100 µM and 300 µM | 62.1 | > 487 | > 43.8 µM and 46.5 µM and 18 µM | > 500
